According to PubChem BioAssay (NCI):
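Values below derive from 48-hour exposures of cells grown in 96-well plates, with endpoints linearly interpolated between the two concentrations bracketing the appropriate inhibition level. The concentration for full growth arrest is given as TGI.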

How the values were obtained:
Assay in all cases: NCI-60 cell line screen, 48 h
UACC-62 melanoma = tested on: UACC-62 melanoma
HCT-15 colon = tested on: HCT-15 colon
T-47D breast = tested on: T-47D breast
MALME-3M melanoma = tested on: MALME-3M melanoma
M14 melanoma = tested on: M14 melanoma
HT29 colon = tested on: HT29 colon
RXF 393 renal = tested on: RXF 393 renal
HS 578T breast = tested on: HS 578T breast
UACC-257 melanoma = tested on: UACC-257 melanoma
NCI-H522 lung = tested on: NCI-H522 lung
MDA-MB-435 = tested on: MDA-MB-435
BT-549 breast = tested on: BT-549 breast
MOLT-4 leukemia = tested on: MOLT-4 leukemia
NCI-H460 lung = tested on: NCI-H460 lung
KM12 colon = tested on: KM12 colon
OVCAR-3 ovarian = tested on: OVCAR-3 ovarian
HL-60(TB) leukemia = tested on: HL-60(TB) leukemia
SK-OV-3 ovarian = tested on: SK-OV-3 ovarian
EKVX NSCLC = tested on: EKVX NSCLC

SMILES	TGI (UACC-62 melanoma) [µM]	TGI (HCT-15 colon) [µM]	TGI (T-47D breast) [µM]	TGI (MALME-3M melanoma) [µM]	TGI (M14 melanoma) [µM]	TGI (HT29 colon) [µM]	TGI (RXF 393 renal) [µM]	TGI (HS 578T breast) [µM]	TGI (UACC-257 melanoma) [µM]	TGI (NCI-H522 lung) [µM]	TGI (MDA-MB-435) [µM]	TGI (BT-549 breast) [µM]	TGI (MOLT-4 leukemia) [µM]	TGI (NCI-H460 lung) [µM]	TGI (KM12 colon) [µM]	TGI (OVCAR-3 ovarian) [µM]	TGI (HL-60(TB) leukemia) [µM]	TGI (SK-OV-3 ovarian) [µM]	TGI (EKVX NSCLC) [µM]
CC(=O)OCC1OC(N2C(c3ccccc3)=CC(c3ccccc3)C(C#N)=C2S)C(OC(C)=O)C(OC(C)=O)C1OC(C)=O (stereo unspecified)	7.67	> 100	> 24.3	28.3	74	> 82.5	12.9	29.8	16.5	28.6	> 40.2	20.6	> 100	> 49.5	> 44.9	> 63.1	> 100	–	–
CCOc1cc(NC(C)=O)ccc1C(=O)NN1C(=O)C(Oc2ccccc2)C1c1ccc(O)c(OC)c1 (stereo unspecified)	–	> 100	77.9	–	> 100	> 100	> 100	–	> 100	–	> 100	> 100	32.3	–	> 100	> 100	44.8	> 100	> 100
CO/N=C(\C(=O)Nc1cncs1)c1csc(NC(c2ccccc2)(c2ccccc2)c2ccccc2)n1	–	> 10	> 10	> 10	> 10	> 10	> 10	> 10	> 10	> 10	–	> 10	> 10	> 10	> 10	> 10	> 10	> 10	> 10
Cc1oc2nc(N(C)C)nc(Cl)c2c1C	> 100	> 100	> 100	–	> 100	> 100	> 100	> 100	> 100	> 100	> 100	> 100	> 100	> 100	> 100	> 100	> 100	–	> 100
CSc1nc(Cl)c2c(n1)Sc1nc3cc4c(cc3n1C2O)OCO4 (stereo unspecified)	14.2	> 100	> 100	63.9	> 43.9	7.55	> 51.9	> 30.4	> 100	0.639	> 100	> 31.3	> 100	> 32	> 100	7.3	–	> 75.3	> 100
CCC1c2[nH]c3ccccc3c2C[C@H]2C(=O)NC(CCC(=O)OC(C)(C)C)C(=O)N12 (stereo partly specified)	> 100	> 100	> 100	> 100	> 100	> 100	> 100	> 100	> 100	> 100	> 100	> 100	> 100	–	> 100	> 100	> 100	> 100	> 100
O=P(O)(O)CN1CCN(CP(=O)(O)O)CCN(CP(=O)(O)O)CCN(CP(=O)(O)O)CC1	> 100	77.7	> 100	–	> 100	> 100	> 100	> 100	> 100	> 100	> 100	> 100	> 100	> 100	> 100	> 100	72.4	–	> 100
Clc1cccc(Cl)c1C1SCC2=Nc3ccccc3CN21 (stereo unspecified)	> 100	> 100	85.1	–	48.1	–	56.6	62.2	> 100	–	> 100	> 100	> 100	> 100	48.1	29.5	> 100	50.6	73.6
Cc1nc(N)c(N2CCNCC2)c(=O)[nH]1	–	> 100	> 100	> 100	> 100	> 100	–	> 100	> 100	> 100	> 100	> 100	> 100	> 100	> 100	> 100	> 100	–	> 100
CCN(CC)Cc1cc(Nc2ccnc3ccc4c(nnn4C)c23)ccc1O	30.9	13.5	63.5	42.1	28.7	> 100	30.6	42.1	28.8	86	–	37.1	> 100	14.2	39.7	39.9	50.6	31.5	> 100
Cn1c(=O)c2c(nc(NCCCCl)n2CC(=O)NCCCCl)n(C)c1=O	> 100	> 100	> 100	–	> 100	> 100	> 100	> 100	> 100	> 100	> 100	> 100	> 100	> 100	> 100	> 100	> 100	> 100	> 100
O=C(CC(=O)N(C(=O)c1ccccc1)c1ccc(Cl)cc1)N/N=C\c1cc(N=Nc2ccccc2Cl)ccc1O	> 100	> 100	> 100	> 100	> 100	> 100	> 100	61.6	–	–	> 100	> 100	37.8	> 100	> 100	> 100	26.2	> 100	> 100
O=C(c1ccccc1)c1c2ccccn2c2cccc[n+]12	> 100	> 100	> 100	> 100	> 100	> 100	> 100	> 100	> 100	–	> 100	> 100	> 100	> 100	> 100	> 100	> 100	> 100	> 100
